Paper PMC10746112, “Synthesis and Pro-Apoptotic Effects of Nitrovinylanthracenes and Related Compounds in Chronic Lymphocytic Leukaemia (CLL) and Burkitt’s Lymphoma (BL)” (Molecules, 2023)

What was measured:
Bjab BL cell line = assay: alamarBlue cell viability assay; type: cell-based; details: Homo sapiens, 24 h
Method: (§1) Cells were seeded at a density of 2.5 × 10^4 cells/well (MCF-7, MDA-MB-231 cells), 1 × 10^4 cells/well (HL-60 cells), 1–5 × 10^4 cells per well (BL MUTU-I, DG-75 cells) and 2 × 10^5 cells/well [HG-3, PGA-1 (CLL cells)], Ramos, BJAB (BL cells) (200 μL per well), in 96-well plates. Cells were treated with the desired drug concentration for the appropriate time for each cell type, and the samples were incubated as required. alamarBlue (20 μL) was then added to each well and the samples further incubated in the dark at 37 °C for 4 h. Wells containing only reagent and cell culture medium in the absence of cells were used as blank controls. Ethanol was used as a vehicle, and cells were treated with 1% ethanol (v/v) in all experiments. The 96-well plates were analysed on a fluorescence plate reader (SpectraMax Gemini, Molecular Devices) (emission and excitement wavelengths of 590 nm and 544 nm, respectively), and the fluorescence was recorded. The decrease in cell viability was then calculated with reference to the vehicle samples (100% viability). EMEM medium with the addition of alamarBlue was used as a blank. Vehicle-treated cells were considered to be 100% viable, and the viabilities of each compound was calculated accordingly. […] All biochemical assays were performed in triplicate on at least three independent occasions, and the mean values were determined.

Ramos BL cell line = assay: alamarBlue cell viability assay; type: cell-based; details: Homo sapiens, 24 h
Method: as §1

[1] = viability of peripheral blood mononuclear cells; type: cell-based, human; details: human, healthy donor PBMCs
Method: (§2) The nitrostyrene 11h was evaluated for its cytotoxic effect on healthy donor peripheral blood mononuclear cells (PBMCs) to determine the selective toxicity of compounds containing the nitrostyrene pharmacophore on malignant BL cell lines over normal blood cells. Compound 11h was evaluated at 1 μM and 10 μM concentrations over a 24 h treatment time (Supplementary Information, Table S8).
as §1
(§3) Peripheral blood was obtained from healthy donors (n = 2) after informed consent was received. The blood was then placed into a 50 mL falcon tube and diluted with an equal volume of phosphate-buffered saline (PBS). PBMCs were isolated using density gradient centrifugation using LymphoPrep as described previously Approval for this study was obtained from the School of Pharmacy and Pharmaceutical Sciences Trinity College Dublin Research Ethics Committee (2020-06-01-MS).

[2] = system: peripheral blood mononuclear cells (PBMCs); assay: viability of peripheral blood mononuclear cells; type: cell-based, human; details: 24 h, healthy donor PBMCs
Method: as §2, §1, §3

HG-3 CLL cells = assay: Inhibitor studies (NAC, Z-VAD-FMK), Annexin V/PI FACS; type: cell-based; details: 48 h
Method: (§4) Additional annexin V/PI FACS analysis was carried out in the presence of a reactive oxygen species (ROS) inhibitor (N-acetylcysteine) and a pan-caspase inhibitor (Z-VAD-FMK) in order to study their effects (if any) on the pro-apoptotic effects of 11h (Figure 6). […] Similar results were obtained in the HG-3 cell line at 2.5 µM (90% to 31%) and 5 µM of 11h (84% to 51%). In the presence of the caspase inhibitor Z-VAD-FMK ([…]), the apoptosis induced by compound 11h decreased from 63% to 25% at 2.5 µM and from 79% to 43% at 5 µM in the PGA1 cell line. Similar results were obtained in the HG-3 cell line at 2.5 µM (84% to 29%) and 5 µM (74% to 50%). These findings indicate that both caspases and ROS may be involved in the mechanism of apoptosis for compound 11h.
(§5) The HG-3 and PGA-1 CLL cells (5 × 10^4 cells/mL) were pre-treated at 37 °C with either 5 mM N-acetylcysteine (NAC) for 1 h or 40 μM caspase inhibitor (Z-VAD-FMK; MBL International, Co., Woburn, MA, USA) for 4 h prior to treatment with (11 h at 5 μM) for 48 h. Annexin V/PI FACS analysis was then carried out as described above in Section 4.5.

PGA-1 CLL cells = assay: as above; type: cell-based; details: 48 h
Method: as §4, §5

C/C(=C\c1cccc(Cl)c1)[N+](=O)[O-] [Compound 11h]
viability at 1 µM (Bjab BL cell line; read-out: % Viable Cells Remaining Bjab 24 h 1 µM): 90.1%
viability at 10 µM (Bjab BL cell line; read-out: % Viable Cells Remaining Bjab 24 h 10 µM): 46.2%
viability at 1 µM (Ramos BL cell line; read-out: % Viable Cells Remaining Ramos 24 h 1 µM): 27.2%
viability at 10 µM (Ramos BL cell line; read-out: % Viable Cells Remaining Ramos 24 h 10 µM): 5.1%
viability at 24 h, 1 µM ([1]; 1 µM): 74%
viability at 24 h, 10 µM ([1]; 10 µM): 34.1%
PBMCs % viability ([2]; 1 µM): 73.66±3.725%
PBMCs % viability ([2]; 10 µM): 34.08±9.587%
apoptosis (HG-3 CLL cells; HG-3, 2.5 µM compound, in the presence of NAC): 31%
apoptosis (HG-3 CLL cells; HG-3, 2.5 µM compound, in the presence of Z-VAD-FMK): 29%
apoptosis (HG-3 CLL cells; HG-3, 2.5 µM compound, without NAC): 90%
apoptosis (HG-3 CLL cells; HG-3, 2.5 µM compound, without Z-VAD-FMK): 84%
apoptosis (HG-3 CLL cells; HG-3, 5 µM compound, in the presence of NAC): 51%
apoptosis (HG-3 CLL cells; HG-3, 5 µM compound, in the presence of Z-VAD-FMK): 50%
apoptosis (HG-3 CLL cells; HG-3, 5 µM compound, without NAC): 84%
apoptosis (HG-3 CLL cells; HG-3, 5 µM compound, without Z-VAD-FMK): 74%
apoptosis (PGA-1 CLL cells; PGA1, 2.5 µM compound, in the presence of NAC): 21%
apoptosis (PGA-1 CLL cells; PGA1, 2.5 µM compound, in the presence of Z-VAD-FMK): 25%
apoptosis (PGA-1 CLL cells; PGA1, 2.5 µM compound, without NAC): 68%
apoptosis (PGA-1 CLL cells; PGA1, 2.5 µM compound, without Z-VAD-FMK): 63%
apoptosis (PGA-1 CLL cells; PGA1, 5 µM compound, in the presence of NAC): 33%
apoptosis (PGA-1 CLL cells; PGA1, 5 µM compound, in the presence of Z-VAD-FMK): 43%
apoptosis (PGA-1 CLL cells; PGA1, 5 µM compound, without NAC): 88%
apoptosis (PGA-1 CLL cells; PGA1, 5 µM compound, without Z-VAD-FMK): 79%
